Assay results published in patent publication US20260327214A1, “1,3,4-OXADIAZOLE DERIVATIVE COMPOUNDS AS HISTONE DEACETYLASE 6 INHIBITOR, AND USES THEREOF” (CHONG KUN DANG PHARMACEUTICAL CORP., priority 2022, published 2026).
pIC50: −log10 of the molar value.

How the values were obtained:
human recombinant HDAC1 = molecular target: T1, human recombinant HDAC1 (Homo sapiens, UniProt Q13547); assay: HDAC1 enzyme activity inhibition test (HDAC Fluorometric Drug Discovery Kit); assay type: biochemical; conditions: 30° C., 60 minutes, 10 μM substrate
T1 construct: purchased Enzo Life Science BML-SE456
In short: (§1)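 Recombinant human HDAC1 or HDAC6 (0.3 μg) reacted with 10 μM Fluor de Lys SIRT1 substrate and 5-fold diluted compound for 60 min at 30 °C. Developer II added 30 min; fluorescence read at Ex 360/Em 460 and IC50 calculated.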

human recombinant HDAC6 = molecular target: T2, human recombinant HDAC6 (Homo sapiens, UniProt Q9UBN7); assay: HDAC6 enzyme activity inhibition test (HDAC Fluorometric Drug Discovery Kit); assay type: biochemical; conditions: for HDAC6 selectivity (fold): HDAC6 over HDAC1; for pIC50: human recombinant HDAC6, same protocol as HDAC1
T2 construct: purchased Calbiochem 382180
T2 sequence (Q9UBN7 1-1215): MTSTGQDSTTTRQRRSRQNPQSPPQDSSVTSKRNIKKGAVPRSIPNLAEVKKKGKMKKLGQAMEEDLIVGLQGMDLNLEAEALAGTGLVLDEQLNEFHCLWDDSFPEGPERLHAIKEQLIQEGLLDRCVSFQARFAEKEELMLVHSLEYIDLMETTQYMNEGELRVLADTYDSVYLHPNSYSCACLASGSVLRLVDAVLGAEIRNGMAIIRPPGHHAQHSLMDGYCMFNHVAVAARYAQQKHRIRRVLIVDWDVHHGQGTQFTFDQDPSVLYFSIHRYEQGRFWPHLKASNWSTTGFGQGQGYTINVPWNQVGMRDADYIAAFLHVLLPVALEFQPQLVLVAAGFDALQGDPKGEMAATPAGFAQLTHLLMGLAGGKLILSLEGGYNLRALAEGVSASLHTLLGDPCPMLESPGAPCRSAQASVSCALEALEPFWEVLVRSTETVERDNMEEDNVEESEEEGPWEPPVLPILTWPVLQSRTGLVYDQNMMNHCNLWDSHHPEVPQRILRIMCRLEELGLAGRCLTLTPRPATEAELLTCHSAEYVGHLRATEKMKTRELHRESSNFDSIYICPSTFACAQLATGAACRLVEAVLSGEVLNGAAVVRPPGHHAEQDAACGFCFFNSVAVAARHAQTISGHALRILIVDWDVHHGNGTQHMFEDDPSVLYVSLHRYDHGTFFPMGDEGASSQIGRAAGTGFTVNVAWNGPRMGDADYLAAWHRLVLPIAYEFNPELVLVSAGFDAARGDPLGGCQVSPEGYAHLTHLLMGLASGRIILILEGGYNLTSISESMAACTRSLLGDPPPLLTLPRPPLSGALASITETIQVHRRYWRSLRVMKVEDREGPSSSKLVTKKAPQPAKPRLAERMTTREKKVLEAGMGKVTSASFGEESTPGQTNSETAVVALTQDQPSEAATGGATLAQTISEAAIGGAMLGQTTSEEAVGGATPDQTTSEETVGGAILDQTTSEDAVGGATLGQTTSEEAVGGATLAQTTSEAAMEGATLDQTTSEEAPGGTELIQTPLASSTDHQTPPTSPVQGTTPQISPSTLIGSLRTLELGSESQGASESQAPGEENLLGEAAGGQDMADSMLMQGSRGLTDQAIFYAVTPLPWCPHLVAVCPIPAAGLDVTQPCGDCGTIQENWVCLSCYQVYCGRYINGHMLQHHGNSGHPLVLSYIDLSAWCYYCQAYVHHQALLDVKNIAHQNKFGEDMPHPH
In short: as §1

T1 sequence (Q13547 whole entry): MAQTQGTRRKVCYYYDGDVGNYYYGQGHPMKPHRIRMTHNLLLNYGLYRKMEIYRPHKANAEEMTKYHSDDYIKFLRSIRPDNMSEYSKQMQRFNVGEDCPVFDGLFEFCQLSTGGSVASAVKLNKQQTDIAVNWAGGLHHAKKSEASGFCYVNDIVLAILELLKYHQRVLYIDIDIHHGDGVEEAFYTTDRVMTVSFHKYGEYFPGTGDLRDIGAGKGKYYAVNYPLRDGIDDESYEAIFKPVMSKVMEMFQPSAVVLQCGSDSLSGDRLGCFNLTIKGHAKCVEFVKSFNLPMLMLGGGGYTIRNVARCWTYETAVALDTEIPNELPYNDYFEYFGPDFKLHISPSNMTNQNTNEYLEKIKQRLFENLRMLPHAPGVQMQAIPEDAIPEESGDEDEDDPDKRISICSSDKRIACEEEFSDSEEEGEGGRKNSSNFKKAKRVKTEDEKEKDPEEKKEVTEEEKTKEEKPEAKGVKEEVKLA

What does the source list for `CC1CCN(Cc2ccc(-c3nn(Cc4ccc(-c5nnc(C(F)F)o5)cn4)c(=S)o3)cc2)CC1` [Compound 96, 3-[[5-[5-(difluoromethyl)-1,3,4-oxadiazol-2-yl]-2-pyridyl]methyl]-5-[4-[(4-methyl-1-piperidyl)methyl]phenyl]-1,3,4-oxadiazol-2-thione]?
pIC50 (human recombinant HDAC1): < 4.30; HDAC6 selectivity (fold) (human recombinant HDAC6): 1208 fold; pIC50 (human recombinant HDAC6): 7.38

With `FC(F)c1nnc(-c2ccc(Cn3nc(-c4ccc(CN5CC[C@H](F)C5)s4)oc3=S)nc2)o1` [Compound 125, 3-[[5-[5-(difluoromethyl)-1,3,4-oxadiazol-2-yl]-2-pyridyl]methyl]-5-[5-[[(3S)-3-fluoropyrrolidin-1-yl]methyl]-2-thienyl]-1,3,4-oxadiazol-2-thione] as the molecule, how does the pIC50 (human recombinant HDAC1) read?
Its pIC50 is under 4.30.

What about the “HDAC6 selectivity (fold)” value (human recombinant HDAC6) of the same molecule?
The value was 563 fold.

And the pIC50 (human recombinant HDAC6)?
The pIC50 was 7.05.

Which results are given for `O=C1OCC(c2ccccn2)=NN1Cc1ncc(-c2nnc(C(F)F)o2)cc1F` [Compound 73, 3-[[5-[5-(difluoromethyl)-1,3,4-oxadiazol-2-yl]-3-fluoro-2-pyridyl]methyl]-5-(2-pyridyl)-6H-1,3,4-oxadiazin-2-one]?
pIC50 (human recombinant HDAC1): < 4.30; HDAC6 selectivity (fold) (human recombinant HDAC6): 442 fold; pIC50 (human recombinant HDAC6): 6.95

What does the source list for `O=c1oc(-c2ccc3cccnc3c2)nn1Cc1ccc(-c2nnc(C(F)F)o2)cn1` [Compound 17, 3-[[5-[5-(difluoromethyl)-1,3,4-oxadiazol-2-yl]-2-pyridyl]methyl]-5-(7-quinolyl)-1,3,4-oxadiazol-2-one]?
pIC50 (human recombinant HDAC1): < 4.30; HDAC6 selectivity (fold) (human recombinant HDAC6): 1089 fold; pIC50 (human recombinant HDAC6): 7.34

`O=C1OCC(c2cccs2)=NN1Cc1ccc(-c2nnc(C(F)F)o2)cn1` [Compound 69, 3-[[5-[5-(difluoromethyl)-1,3,4-oxadiazol-2-yl]-2-pyridyl]methyl]-5-(2-thienyl)-6H-1,3,4-oxadiazin-2-one] was tested. Which pIC50 (human recombinant HDAC1) did it give?
The pIC50 was under 4.30.

What about the “HDAC6 selectivity (fold)” value (human recombinant HDAC6) of the same molecule?
The value was 434 fold.

What about the pIC50 (human recombinant HDAC6) of the same molecule?
Its pIC50 is 6.94.

With `CC(C)N1CCN(Cc2ccc(-c3nn(Cc4ccc(-c5nnc(C(F)F)o5)cn4)c(=O)s3)cc2)CC1` [Compound 66] as the molecule, how does the pIC50 (human recombinant HDAC1) read?
Its pIC50 is under 4.30.

And the “HDAC6 selectivity (fold)” value (human recombinant HDAC6)?
The value was 1497 fold.

What about the pIC50 (human recombinant HDAC6) of the same molecule?
Its pIC50 is 7.48.

How did the pIC50 (human recombinant HDAC1) turn out when `O=c1oc(-c2cccc(N3CCN(C4COC4)CC3)n2)nn1Cc1ccc(-c2nnc(C(F)F)o2)cn1` [Compound 7, 3-[[5-[5-(difluoromethyl)-1,3,4-oxadiazol-2-yl]-2-pyridyl]methyl]-5-[6-[4-(oxetane-3-yl)piperazin-1-yl]-2-pyridyl]-1,3,4-oxadiazol-2-one] was run?
Its pIC50 is under 4.30.

And the “HDAC6 selectivity (fold)” value (human recombinant HDAC6)?
The value was 600 fold.

And the pIC50 (human recombinant HDAC6)?
The pIC50 was 7.08.

How did the pIC50 (human recombinant HDAC1) turn out when `CC(C)N1CCC(c2cc(-c3nn(Cc4ccc(-c5nnc(C(F)F)o5)cn4)c(=S)o3)ccc2F)CC1` [Compound 116, 3-[[5-[5-(difluoromethyl)-1,3,4-oxadiazol-2-yl]-2-pyridyl]methyl]-5-[4-fluoro-3-(1-isopropyl-4-piperidyl)phenyl]-1,3,4-oxadiazol-2-thione] was run?
The pIC50 was under 4.30.

What about the “HDAC6 selectivity (fold)” value (human recombinant HDAC6) of the same molecule?
Its value is 429 fold.

What about the pIC50 (human recombinant HDAC6) of the same molecule?
The pIC50 was 6.93.

`CN(C)Cc1ccc(-c2nn(Cc3ccc(-c4nnc(C(F)F)o4)cn3)c(=S)o2)cc1` [Compound 91, 3-[[5-[5-(difluoromethyl)-1,3,4-oxadiazol-2-yl]-2-pyridyl]methyl]-5-[4-[(dimethylamino)methyl]phenyl]-1,3,4-oxadiazol-2-thione] was tested. Which pIC50 (human recombinant HDAC1) did it give?
Its pIC50 is under 4.30.

What about the “HDAC6 selectivity (fold)” value (human recombinant HDAC6) of the same molecule?
The value was 1832 fold.

What about the pIC50 (human recombinant HDAC6) of the same molecule?
Its pIC50 is 7.56.

`CC(C)N1CCN(c2cccc(-c3nn(Cc4ccc(-c5nnc(C(F)F)o5)cn4)c(=O)o3)n2)CC1` [Compound 6, 3-[[5-[5-(difluoromethyl)-1,3,4-oxadiazol-2-yl]-2-pyridyl]methyl]-5-[6-(4-isopropylpiperazin-1-yl)-2-pyridyl]-1,3,4-oxadiazol-2-one] was tested. Which pIC50 (human recombinant HDAC1) did it give?
The pIC50 was under 4.30.

And the “HDAC6 selectivity (fold)” value (human recombinant HDAC6)?
The value was 1078 fold.

And the pIC50 (human recombinant HDAC6)?
The pIC50 was 7.33.

How did the pIC50 (human recombinant HDAC1) turn out when `O=c1oc(-c2cccc(N3CCN(C4COC4)CC3)c2)nn1Cc1ccc(-c2nnc(C(F)F)o2)cn1` [Compound 40, 3-[[5-[5-(difluoromethyl)-1,3,4-oxadiazol-2-yl]-2-pyridyl]methyl]-5-[3-[4-(oxetane-3-yl)piperazin-1-yl]phenyl]-1,3,4-oxadiazol-2-one] was run?
The pIC50 was under 4.30.

And the “HDAC6 selectivity (fold)” value (human recombinant HDAC6)?
Its value is 652 fold.

And the pIC50 (human recombinant HDAC6)?
Its pIC50 is 7.12.

Which results are given for `Fc1c(-c2nn(Cc3ccc(-c4nnc(C(F)F)o4)cn3)c(=S)o2)cccc1C1CCN(C2CCCC2)CC1` [Compound 82, 5-[3-(1-cyclopentyl-4-piperidyl)-2-fluoro-phenyl]-3-[[5-[5-(difluoromethyl)-1,3,4-oxadiazol-2-yl]-2-pyridyl]methyl]-1,3,4-oxadiazol-2-thione]?
pIC50 (human recombinant HDAC1): < 4.30; HDAC6 selectivity (fold) (human recombinant HDAC6): 453 fold; pIC50 (human recombinant HDAC6): 6.96

`CN1CCN(c2cccc(-c3nn(Cc4ccc(-c5nnc(C(F)F)o5)cn4)c(=O)o3)c2)CC1` [Compound 37, 3-[[5-[5-(difluoromethyl)-1,3,4-oxadiazol-2-yl]-2-pyridyl]methyl]-5-[3-(4-methylpiperazin-1-yl)phenyl]-1,3,4-oxadiazol-2-one] was tested. Which pIC50 (human recombinant HDAC1) did it give?
Its pIC50 is under 4.30.

And the “HDAC6 selectivity (fold)” value (human recombinant HDAC6)?
The value was 512 fold.

And the pIC50 (human recombinant HDAC6)?
Its pIC50 is 7.01.

How did the pIC50 (human recombinant HDAC1) turn out when `CN1CCN(c2cccc(-c3nn(Cc4ccc(-c5nnc(C(F)F)o5)cn4)c(=S)o3)c2)CC1` [Compound 75, 3-[[5-[5-(difluoromethyl)-1,3,4-oxadiazol-2-yl]-2-pyridyl]methyl]-5-[3-(4-methylpiperazin-1-yl)phenyl]-1,3,4-oxadiazol-2-thione] was run?
Its pIC50 is under 4.30.

And the “HDAC6 selectivity (fold)” value (human recombinant HDAC6)?
Its value is 1149 fold.

And the pIC50 (human recombinant HDAC6)?
The pIC50 was 7.36.

Which results are given for `CC(C)N1CCC(c2ccc(-c3nn(Cc4ccc(-c5nnc(C(F)F)o5)cn4)c(=O)s3)cc2)CC1` [Compound 55, 3-[[5-[5-(difluoromethyl)-1,3,4-oxadiazol-2-yl]-2-pyridyl]methyl]-5-[4-(1-isopropyl-4-piperidyl)phenyl]-1,3,4-thiadiazol-2-one]?
pIC50 (human recombinant HDAC1): < 4.30; HDAC6 selectivity (fold) (human recombinant HDAC6): 634 fold; pIC50 (human recombinant HDAC6): 7.10

With `CC(C)N1CCN(Cc2ccc(-c3nn(Cc4ccc(-c5nnc(C(F)F)o5)cn4)c(=O)o3)cc2)CC1` [Compound 83, 3-[[5-[5-(difluoromethyl)-1,3,4-oxadiazol-2-yl]-2-pyridyl]methyl]-5-[4-[(4-isopropylpiperazin-1-yl)methyl]phenyl]-1,3,4-oxadiazol-2-one] as the molecule, how does the pIC50 (human recombinant HDAC1) read?
The pIC50 was under 4.30.

What about the “HDAC6 selectivity (fold)” value (human recombinant HDAC6) of the same molecule?
The value was 554 fold.

What about the pIC50 (human recombinant HDAC6) of the same molecule?
Its pIC50 is 7.04.

How did the pIC50 (human recombinant HDAC1) turn out when `CN1CCc2ccc(-c3nn(Cc4ccc(-c5nnc(C(F)F)o5)cn4)c(=O)o3)cc2C1` [Compound 12, 3-[[5-[5-(difluoromethyl)-1,3,4-oxadiazol-2-yl]-2-pyridyl]methyl]-5-(2-methyl-3,4-dihydro-1H-isoquinolin-7-yl)-1,3,4-oxadiazol-2-one] was run?
Its pIC50 is under 4.30.

And the “HDAC6 selectivity (fold)” value (human recombinant HDAC6)?
Its value is 607 fold.

And the pIC50 (human recombinant HDAC6)?
The pIC50 was 7.08.

Which results are given for `FC(F)c1nnc(-c2ccc(Cn3nc(-c4ccc(CN5CCOCC5)cc4)oc3=S)nc2)o1` [Compound 95, 3-[[5-[5-(difluoromethyl)-1,3,4-oxadiazol-2-yl]-2-pyridyl]methyl]-5-[4-(morpholinomethyl)phenyl]-1,3,4-oxadiazol-2-thione]?
pIC50 (human recombinant HDAC1): < 4.30; HDAC6 selectivity (fold) (human recombinant HDAC6): 574 fold; pIC50 (human recombinant HDAC6): 7.06

With `CC(C)N1CCc2cc(-c3nn(Cc4ncc(-c5nnc(C(F)F)o5)cc4F)c(=S)o3)ccc2C1` [Compound 136, 3-[[5-[5-(difluoromethyl)-1,3,4-oxadiazol-2-yl]-3-fluoro-2-pyridyl]methyl]-5-(2-isopropyl-3,4-dihydro-1H-isoquinolin-6-yl)-1,3,4-oxadiazol-2-thione] as the molecule, how does the pIC50 (human recombinant HDAC1) read?
Its pIC50 is under 4.30.

What about the “HDAC6 selectivity (fold)” value (human recombinant HDAC6) of the same molecule?
Its value is 840 fold.

What about the pIC50 (human recombinant HDAC6) of the same molecule?
The pIC50 was 7.23.
